Assay results from patent US20250194649A1, “FATTY ACID AMIDES AND THEIR USE AS FLAVOR MODIFIERS” (Firmenich SA, priority 2022, published 2025).

Assays:
Type in all cases: in vivo
[1] = Sensory panel (8 experts): sample added to reference water solution containing 4% sucrose; details: dosage 0.2 ppm; scale −5 (strong masking) to 5 (strong enhancing), 0 = reference 4% sucrose in water
Source text: (§1) A panel consisting of 8 experts evaluating the samples adding in reference at 0.2 or 5 ppm for their sensory properties (sweet, licorice, sweet lingering) on a scale of −5 to 5 (−5 denoted strong masking effect and 5 denoted strong enhancing effect, 0 being the intensity of a reference water solution containing 4% sucrose, or 0.02% SG95. The results are shown in Table 2.

[2] = Sensory panel (8 experts): sample added to reference water solution containing 0.02% SG95 (stevia extract); details: dosage 0.2 ppm; scale −5 to 5, 0 = reference 0.02% SG95 in water
Source text: as §1

[3] = Sensory panel (8 experts): sweet intensity of sub-threshold sweetener solutions with and without R1 at 50 ppm; details: for Sweet intensity of the compound solution: without R1
Source text: A panel consisting of 8 experts evaluating R1 adding in various sweeteners at 50 ppm for their sweet properties (0 denoted no sweet taste, 10 denoted too strong sweet taste). The sweetener dosage were designed under their sweetness threshold in water.

[4] = compound 10 ppm in water, scale 0 (no sweet taste) to 10 (too strong sweet taste)
[5] = compound 10 ppm plus R1 (Sichuan pepper oil) 50 ppm, scale 0 to 10
[6] = compound 2.5 ppm in water, scale 0 to 10
[7] = compound 2.5 ppm plus R1 (Sichuan pepper oil) 50 ppm, scale 0 to 10

**Q.** Which results are given for `C/C=C/C=C/C=C\CC/C=C/C(=O)NCC(C)(C)O` [Compound S1, Hydroxy-α-sanshool]?
**A.** ΔSweet intensity to sucrose solution [1]: +0.3; ΔLicorice intensity to stevia extract solution [2]: +0.3; ΔLingering intensity to stevia extract solution [2]: −0.8; ΔSweet intensity tostevia extract solution [2]: +0.1

**Q.** Which “Sweet intensity of the compound solution” value ([3]; compound 5 ppm in water, scale 0 to 10) does the source give for `C=C1C[C@@]23CC[C@H]4[C@@](C)(CCC[C@@]4(C)C(=O)O[C@@H]4O[C@H](CO)[C@@H](O)[C@H](O)[C@H]4O)[C@@H]2CC[C@]1(O[C@@H]1O[C@H](CO)[C@@H](O)[C@H](O)[C@H]1O)C3` [Rubusoside, rubusoside] here?
**A.** The value was 0.

**Q.** What about the “Sweet intensity of the compound and R1 blend solution” value ([3]; compound 5 ppm plus R1 (Sichuan pepper oil) 50 ppm, scale 0 to 10) of the same compound?
**A.** Its value is 1.6.

**Q.** What does the source list for hesperidin dihydrochalcone?
**A.** Sweet intensity of the compound solution [3, 4]: 0.09; Sweet intensity of the compound and R1 blend solution [3, 5]: 1.3

**Q.** What does the source list for `COc1cc([C@@H]2CC(=O)c3c(O)cc(O)cc3O2)ccc1O` [Homoeriodictyol, homoeriodictyol]?
**A.** Sweet intensity of the compound solution [3, 4]: 0; Sweet intensity of the compound and R1 blend solution [3, 5]: 1.7

**Q.** With `O=C1C[C@@H](c2ccc(O)cc2)Oc2cc(O)cc(O)c21` [Naringenin, naringenin] as the compound, how does the “Sweet intensity of the compound solution” value [3, 4] read?
**A.** Its value is 0.13.

**Q.** What about the “Sweet intensity of the compound and R1 blend solution” value [3, 5] of the same compound?
**A.** The value was 1.3.

**Q.** What does the source list for malonyl rebaudioside E [Malonyl Reb E]?
**A.** Sweet intensity of the compound solution [3, 6]: 0.13; Sweet intensity of the compound and R1 blend solution [3, 7]: 1.5

**Q.** For `C[C@H](CC[C@@H](O[C@@H]1O[C@H](CO[C@@H]2O[C@H](CO)[C@@H](O)[C@H](O)[C@H]2O)[C@@H](O)[C@H](O)[C@H]1O[C@@H]1O[C@H](CO)[C@@H](O)[C@H](O)[C@H]1O)C(C)(C)O)[C@H]1CC[C@@]2(C)[C@@H]3CC=C4[C@@H](CC[C@H](O[C@@H]5O[C@H](CO[C@@H]6O[C@H](CO)[C@@H](O)[C@H](O)[C@H]6O)[C@@H](O)[C@H](O)[C@H]5O)C4(C)C)[C@]3(C)[C@H](O)C[C@]12C` [Mogroside V, mogroside V], which “Sweet intensity of the compound solution” value [3, 6] is on record?
**A.** Its value is 0.08.

**Q.** What about the “Sweet intensity of the compound and R1 blend solution” value [3, 7] of the same compound?
**A.** The value was 1.6.

**Q.** Which results are given for `O=C1C[C@@H](c2ccc(O)c(O)c2)Oc2cc(O)cc(O)c21` [Eriodictyol, eriodictyol]?
**A.** Sweet intensity of the compound solution [3, 4]: 0.03; Sweet intensity of the compound and R1 blend solution [3, 5]: 1.7

**Q.** What does the source list for hydroxy-γ-sanshool [Compound S2]?
**A.** ΔSweet intensity to sucrose solution [1]: +0.7; ΔLicorice intensity to stevia extract solution [2]: −0.5; ΔLingering intensity to stevia extract solution [2]: −0.8; ΔSweet intensity tostevia extract solution [2]: +0.3

**Q.** For `C=C1C[C@@]23CC[C@H]4[C@@](C)(CCC[C@@]4(C)C(=O)O[C@@H]4O[C@H](CO)[C@@H](O)[C@H](O)[C@H]4O)[C@@H]2CC[C@]1(O[C@@H]1O[C@H](CO)[C@@H](O)[C@H](O[C@@H]2O[C@H](CO)[C@@H](O)[C@H](O)[C@H]2O)[C@H]1O[C@@H]1O[C@H](CO)[C@@H](O)[C@H](O)[C@H]1O)C3` [RebA, Rebaudioside A], which “Sweet intensity of the compound solution” value [3, 6] is on record?
**A.** The value was 0.19.

**Q.** What about the “Sweet intensity of the compound and R1 blend solution” value [3, 7] of the same compound?
**A.** The value was 1.9.

**Q.** Which results are given for `COc1ccc(CCC(=O)c2c(O)cc(O[C@@H]3O[C@H](CO)[C@@H](O)[C@H](O)[C@H]3O)cc2O)cc1O` [hesperetin dihydrochalcone 4′-O-glucoside]?
**A.** Sweet intensity of the compound solution [3, 6]: 0.04; Sweet intensity of the compound and R1 blend solution [3, 7]: 1.9

**Q.** What does the source list for α-mogroside IV?
**A.** Sweet intensity of the compound solution [3, 6]: 0.13; Sweet intensity of the compound and R1 blend solution [3, 7]: 1.8

**Q.** What does the source list for `C/C=C/C=C/C=C/CC/C=C/C(=O)NCC(C)(C)O` [Compound S3, Hydroxy-β-sanshool]?
**A.** ΔSweet intensity to sucrose solution [1]: +0.5; ΔLicorice intensity to stevia extract solution [2]: 0; ΔLingering intensity to stevia extract solution [2]: −0.4; ΔSweet intensity tostevia extract solution [2]: +0.2

**Q.** Which “Sweet intensity of the compound solution” value ([3]; compound 0.5 ppm in water, scale 0 to 10) does the source give for `COc1ccc(CCC(=O)c2c(O)cc(O[C@@H]3O[C@H](CO)[C@@H](O)[C@H](O)[C@H]3O[C@@H]3O[C@@H](C)[C@H](O)[C@@H](O)[C@H]3O)cc2O)cc1O` [NHDC, neohesperidin dihydrochalcone] here?
**A.** The value was 0.06.

**Q.** What about the “Sweet intensity of the compound and R1 blend solution” value ([3]; compound 0.5 ppm plus R1 (Sichuan pepper oil) 50 ppm, scale 0 to 10) of the same compound?
**A.** Its value is 1.1.

**Q.** Which “Sweet intensity of the compound solution” value [3, 6] does the source give for `C=C1C[C@@]23CC[C@H]4[C@@](C)(CCC[C@@]4(C)C(=O)O[C@@H]4O[C@H](CO)[C@@H](O)[C@H](O)[C@H]4O[C@@H]4O[C@H](CO)[C@@H](O)[C@H](O)[C@H]4O)[C@@H]2CC[C@]1(O[C@@H]1O[C@H](CO)[C@@H](O)[C@H](O)[C@H]1O[C@@H]1O[C@H](CO)[C@@H](O)[C@H](O)[C@H]1O)C3` [Reb E, Rebaudioside E] here?
**A.** The value was 0.06.

**Q.** What about the “Sweet intensity of the compound and R1 blend solution” value [3, 7] of the same compound?
**A.** Its value is 1.5.

**Q.** For `O=C(CCc1ccc(O)cc1)c1c(O)cc(O[C@@H]2O[C@H](CO)[C@@H](O)[C@H](O)[C@H]2O)cc1O` [Trilobatin, trilobatin], which “Sweet intensity of the compound solution” value [3, 4] is on record?
**A.** Its value is 0.

**Q.** And the “Sweet intensity of the compound and R1 blend solution” value [3, 5]?
**A.** The value was 1.5.

**Q.** Which “Sweet intensity of the compound solution” value [3, 6] does the source give for malonyl rebaudioside A [Malonyl Reb A] here?
**A.** The value was 0.

**Q.** What about the “Sweet intensity of the compound and R1 blend solution” value [3, 7] of the same compound?
**A.** Its value is 1.3.
